Experimental data as given in patent publication US6486153B1, “Phenylindole derivatives as 5-HT2A receptor ligands” (Merck Sharp & Dohme Ltd., priority 1997, dated 2002).
Counter-ions that a name gives are not always drawn.

Test system: not given
Conditions: not given

Row | Compound | melting point [°C]
1 | COc1cccc2[nH]c(-c3ccccc3)c(CCN3CCCCC3)c12 | 260 to 262
2 | Brc1ccc2[nH]c(-c3ccccc3)c(CCN3CCCCC3)c2c1 (as salt: oxalate) | 121 to 122
3 | Brc1cccc2c(CCN3CCCCC3)c(-c3ccccc3)[nH]c12 (as salt: oxalate) | 206 to 207
4 | Clc1cccc2c(CCN3CCCCC3)c(-c3ccccc3)[nH]c12 (as salt: oxalate) | 178 to 179
5 | Cc1ccc2[nH]c(-c3ccccc3)c(CCN3CCCCC3)c2c1 (as salt: oxalate) | 163 to 164
6 | Fc1ccc2c(CCN3CCCCC3)c(-c3ccccc3)[nH]c2c1 (as salt: oxalate) | 214 to 215
7 | Brc1cccc2[nH]c(-c3ccccc3)c(CCN3CCCCC3)c12 (as salt: oxalate) | > 230
8 | Brc1ccc2c(CCN3CCCCC3)c(-c3ccccc3)[nH]c2c1 (as salt: oxalate) | > 230
9 | Cc1cccc2c(CCN3CCCCC3)c(-c3ccccc3)[nH]c12 (as salt: oxalate) | 159 to 161
10 | Fc1cc(F)c2[nH]c(-c3ccccc3)c(CCN3CCCCC3)c2c1 (as salt: oxalate) | 185 to 187
11 | c1ccc(-c2ccc3c(CCN4CCCCC4)c(-c4ccccc4)[nH]c3c2)cc1 (as salt: oxalate) | 129 to 131
12 | COc1cccc2c(CCN3CCCCC3)c(-c3ccccc3)[nH]c12 (as salt: oxalate) | 203 to 205
13 | CC(Cc1c(-c2ccccc2)[nH]c2ccccc12)N1CCCCC1 (centres unmarked) (as salt: oxalate) | 240
14 | Fc1ccc2[nH]c(-c3ccccc3)c(CCN3CCCCC3)c2c1 (as salt: trifluoroacetic acid salt) | 141 to 143

Target: human dopamine D2 receptor (Homo sapiens, UniProt P14416)
Sequence (P14416 whole entry): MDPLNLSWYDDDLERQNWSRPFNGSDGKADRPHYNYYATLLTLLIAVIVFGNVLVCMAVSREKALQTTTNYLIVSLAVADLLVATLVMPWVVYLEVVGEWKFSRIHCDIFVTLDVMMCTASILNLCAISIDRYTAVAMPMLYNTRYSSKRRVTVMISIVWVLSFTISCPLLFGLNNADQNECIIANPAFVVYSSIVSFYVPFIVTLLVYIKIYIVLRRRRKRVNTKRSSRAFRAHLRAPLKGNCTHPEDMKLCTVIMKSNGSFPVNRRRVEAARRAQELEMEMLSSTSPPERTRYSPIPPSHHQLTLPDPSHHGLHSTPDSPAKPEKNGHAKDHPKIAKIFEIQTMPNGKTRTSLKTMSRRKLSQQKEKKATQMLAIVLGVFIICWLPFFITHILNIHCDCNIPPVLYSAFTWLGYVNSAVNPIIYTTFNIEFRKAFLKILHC
Conditions: cited from earlier work

Row | Compound | activity at the human dopamine D2 receptor
15 | COc1cccc(C(O)C2CCN(CCc3ccc(F)cc3)CC2)c1OC (stereo not drawn) [MDL-100,907, (+)-α-(2,3-dimethoxyphenyl)-1-[2-(4-fluorophenyl)ethyl]-4-piperidinemethanol] | essentially devoid of activity

Test system: schizophrenic patients
Conditions: multicentre, placebo-controlled study; cited from earlier work

Row | Compound | antipsychotic efficacy in clinical study | neurological adverse effects in clinical study
16 | COc1cccc(C(O)C2CCN(CCc3ccc(F)cc3)CC2)c1OC (stereo not drawn) [MDL-100,907, (+)-α-(2,3-dimethoxyphenyl)-1-[2-(4-fluorophenyl)ethyl]-4-piperidinemethanol] | demonstrated efficacy | no neurological adverse effects
